Reference: patent publication US20120128580A1, “PRESELECTION OF SUBJECTS FOR THERAPEUTIC TREATMENT WITH ELESCLOMOL BASED ON HYPOXIC STATUS” (SYNTA PHARMACEUTICALS CORP., priority 2010, published 2012)

Key:
[1] = test system: Stage 1V Metastatic melanoma; assay: Phase I/II study, elesclomol in combination with paclitaxel; type: in vivo, human; details: i.v. weekly for three weeks of 28 day cycle
Description: For example, a Phase I/II study was performed to test elesclomol in combination with paclitaxel in patients with Stage 1V Metastatic melanoma. Subjects were dosed intravenously with 80 mg/m^2 of paclitaxel either with or without 213 mg/m^2 of elesclomol once per week for the first three weeks, followed by one week off (i.e., a 28 day cycle with dosing on days 1, 8, and 14) with the 28 day dosing cycle repeated until tumor progression, likely resulting in complete clearance of elesclomol between doses.

[2] = test system: Stave IV Metastatic melanoma; assay: Phase III study, elesclomol in combination with paclitaxel versus paclitaxel alone; type: in vivo, human; details: for Median (months) Overall Survival / Median (months) PFS: Phase III; for Median Progression Free Survival: Phase III metastatic melanoma, chemotherapy-naive
Description: Further, a Phase III study was performed to test elesclomol in combination with paclitaxel versus paclitaxel alone in chemotherapy-naïve subjects with Stave IV Metastatic melanoma. Subjects with metastatic melanoma were randomized with a ratio of 1:1 to either the treatment arm (elesclomol 213 mg/m^2 in combination with paclitaxel 80 mg/m^2) or the control arm (paclitaxel 80 mg/m^2 alone) once per week for the first three weeks, followed by one week off (i.e., a 28 day cycle with dosing on days 1, 8, and 14) with the 28 day dosing cycle repeated until tumor progression, likely resulting in complete clearance of elesclomol between doses. The population enrolled into the study was to have baseline LDH levels limited to 2 times upper limit of normal (ULN) values.

CC(=O)O[C@H]1C(=O)[C@@]2(C)[C@H]([C@H](OC(=O)c3ccccc3)[C@]3(O)C[C@H](OC(=O)[C@H](O)[C@@H](NC(=O)c4ccccc4)c4ccccc4)C(C)=C1C3(C)C)[C@]1(OC(C)=O)CO[C@@H]1C[C@@H]2O [P alone, paclitaxel]
Median Progression Free Survival ([1]; High LDH): 1.6 (95% CI: 1.0-3.0) months | Median Progression Free Survival ([1]; High LDH, listed as paclitaxel): 1.6 months | Median Progression Free Survival ([1]; Low LDH): 3.5 (95% CI: 1.6-7.3) months | Median Progression Free Survival ([1]; Low LDH, listed as paclitaxel): 3.5 months | Median (months) Overall Survival ([2]; High LDH (>1 × ULN)): 8.1 months | Median (months) PFS ([2]; High LDH (>1 × ULN)): 1.9 months | Median Progression Free Survival ([2]; High LDH): 1.9 (95% CI: 1.8-2.6) months | Median (months) Overall Survival ([2]; ITT Population): 11.7 months | Median (months) PFS ([2]; ITT Population): 1.9 months | Median (months) PFS ([2]; Low LDH (≦0.8 × ULN)): 2.1 months | Median (months) Overall Survival ([2]; Low LDH (≦0.8 × ULN), listed as Paclitaxel alone): Not Ach. | Median (months) Overall Survival ([2]; Low LDH (≦0.8 × ULN), listed as paclitaxel alone): not achieved | Median Progression Free Survival ([2]; Low LDH): 2.1 (95% CI: 1.9-3.6) months | Median (months) Overall Survival ([2]; Normal LDH (≦1 × ULN)): 14.5 months | Median (months) PFS ([2]; Normal LDH (≦1 × ULN)): 2.1 months
